# Reference: paper PMC6057649, “Development of NanoLuc-PEST expressing Leishmania mexicana as a new drug discovery tool for axenic- and intramacrophage-based assays” (PLoS Neglected Tropical Diseases, 2018)
# Read-outs that look alike come from different tables or passages of the source.
# Test system: NanoLuc-PEST expressing L. mexicana axenic amastigotes
# Assay: microbe, parasite or virus in culture
# Assay type: cell-based
# Conditions: for viability at 2 µM / viability at 10 µM: read-out: Relative Bioluminescence (%)
# [1] = Leishmania mexicana, 2 µM compound, 72 hours, relative to DMSO only control, n = 4
# [2] = Leishmania mexicana, 10 µM compound, 72 hours, relative to DMSO only control, n = 4
# [3] = 2 µM compound, 72 hours, relative to DMSO only control, n = 4
# [4] = 10 µM compound, 72 hours, relative to DMSO only control, n = 4
SMILES,Relative Bioluminescence (%) [3] [%],Relative Bioluminescence (%) [4] [%],other results
"C[C@H]1c2cccc(O)c2C(=O)C2=C(O)[C@]3(O)C(=O)C(C(N)=O)=C(O)[C@@H](N(C)C)[C@@H]3[C@@H](O)[C@@H]21 [MMV000011, Doxycycline, reference compound]",,,viability at 2 µM [1]: 95%; viability at 10 µM [2]: 94.7%
"OC(c1cc(C(F)(F)F)nc2c(C(F)(F)F)cccc12)C1CCCCN1 (stereo not shown) [MMV000014, Mefloquine, reference compound]",,,viability at 2 µM [1]: 93.4%; viability at 10 µM [2]: 109%
"COc1cc(NC(C)CCCN)c2ncccc2c1 (stereo not shown) [MMV000023, Primaquine, reference compound]",,,viability at 2 µM [1]: 55%; viability at 10 µM [2]: 76.8%
"N=C(N)c1ccc(OCCCCCOc2ccc(C(=N)N)cc2)cc1 [MMV000062, Pentamidine, reference compound]",,,viability at 2 µM [1]: 72.2%; viability at 10 µM [2]: 96.8%
"CCN(CC)CCCCCCNc1cc(OC)cc2c(C)ccnc12 [MMV000063, Sitamaquine, reference compound]",,,viability at 2 µM [1]: 69.6%; viability at 10 µM [2]: 73.6%
O=S(=O)(c1ccc(Cl)cc1)N1CCN(C(=S)NCc2ccco2)CC1 [MMV000858],100.91,108.52,
COc1cccc2c(C)nc(N=C(N)N)nc12 [MMV000907],95.69,78.62,
CCCS(=O)(=O)N1CCC(CO)(Cc2ccccc2C(F)(F)F)CC1 [MMV001059],109.79,96.75,
"COC(=O)C1=C(C)NC(C)=C(C(=O)OC(C)C)C1c1cccc2nonc12 (stereo not shown) [MMV001493, Isradipine, reference compound]",,,viability at 2 µM [1]: 130%; viability at 10 µM [2]: 89.6%
"CC1CS(=O)(=O)CCN1/N=C/c1ccc([N+](=O)[O-])o1 (stereo not shown) [MMV001499, Nifurtimox, reference compound]",,,"viability at 2 µM (Leishmania mexicana, 72 h): 7.65%; viability at 10 µM (Leishmania mexicana, 72 h): -2.17%"
"CNCCC(Oc1ccc(C(F)(F)F)cc1)c1ccccc1 (stereo not shown) [MMV001561, Fluoxetine, reference compound]",,,viability at 2 µM [1]: 90.4%; viability at 10 µM [2]: 52.4%
"NCCC[C@](N)(C(=O)O)C(F)F [MMV001625, α-Difluoromethylornithine, reference compound]",69.72,81.23,
"O=C(C1CCCCC1)N1CC(=O)N2CCc3ccccc3C2C1 (stereo not shown) [MMV002529, Praziquantel, reference compound]",,,viability at 2 µM [1]: 64.8%; viability at 10 µM [2]: 93.8%
"CCN(CC)C(=O)N1CCN(C)CC1 [MMV002816, Diethylcarbamazine, reference compound]",,,viability at 2 µM [1]: 88.8%; viability at 10 µM [2]: 62.5%
"Oc1c(I)cc(I)c2cccnc12 [MMV002817, Iodoquinol, reference compound]",,,"viability at 2 µM [1]: -1.49%; viability at 10 µM [2]: -1.46%; EC50 (Leishmania mexicana, hit compounds from the axenic amastigote screen, S3 Table, read-out: EC50, Axenic Amastigotes): 0.22 µM"
"COC(=O)Nc1nc2ccc(C(=O)c3ccccc3)cc2[nH]1 [MMV003152, Mebendazole, reference compound]",,,"viability at 2 µM [1]: 0.9%; viability at 10 µM [2]: -0.49%; EC50, Axenic Amastigotes (hit compounds from the axenic amastigote screen, S3 Table): could not be resolved"
CN1CCCN(C(c2ccccc2)c2ccc(Cl)cc2)CC1 (stereo not shown) [MMV004168],64.14,52.89,
O=C1Nc2ccc(Br)cc2C12NCCc1c2[nH]c2ccccc12 (stereo not shown) [MMV006239],107.64,108.03,
Cc1ccc2[nH]c3c(NCCN(C)C)ncnc3c2c1 [MMV006372],63.77,81.31,

SMILES,Relative Bioluminescence (%) [3] [%],Relative Bioluminescence (%) [4] [%],other results
COc1cc2ncnc(NC3CCN(Cc4ccccc4)CC3)c2cc1OC [MMV006741],83.56,113.49,
Cc1cc(Cl)c(S(=O)(=O)N2CCCC2)cc1OCC(=O)NC1CCCCC1 [MMV006833],98.68,81.43,
CN(C)c1cc(NC(=O)Nc2ccccc2)c2ccccc2n1 [MMV006901],96.82,107.15,
Cc1cc(NC(=O)c2ccc(S(=O)(=O)N(Cc3ccccc3)C(C)C)cc2)no1 [MMV007133],102.77,71.20,
COc1cc(OC)cc(C(=O)NCC2Cc3cc(Cl)cc(-c4ccncc4)c3O2)c1 (stereo not shown) [MMV007471],87.80,69.68,
Cc1cc(C)n(-c2ccc(NC(=O)C3CCN(Cc4cnc(C)s4)CC3)cc2)n1 [MMV007625],85.10,76.47,
CCOc1ccc(-c2nc(NC(=O)CS(=O)(=O)c3ccccc3)sc2C)cc1 [MMV007638],57.66,52.58,
O=C(NC1CC1)c1ccc(CSCc2ccccc2Cl)o1 [MMV007803],113.68,107.95,
Nc1ccc(C(=O)Nc2ccc(-c3nc4ccccc4o3)cc2)cc1 [MMV007920],112.76,88.96,
COc1ccc(CN2CCOc3ccc(C(C)(O)CN(C)C)cc3C2)cc1C (stereo not shown) [MMV008439],83.20,126.81,
Cc1cc(C(=O)Nc2cnn(Cc3ccc(Cl)cc3Cl)c2)no1 [MMV009054],106.08,100.62,
O=C(C1CCN(c2nnnn2-c2ccccc2)CC1)N1CCc2ccccc2C1 [MMV009135],83.57,73.86,
COc1ccc(-c2cnc3ccc(NCc4ccc(S(N)(=O)=O)cc4)nn23)cn1 [MMV010545],70.73,68.48,
COc1cc(-c2cc(-c3ccc(S(C)(=O)=O)cc3)cnc2N)ccc1O [MMV010576],44.69,21.84,
c1csc(-c2cnc3sc(NCC4CCOCC4)nn23)c1 [MMV010764],69.50,31.69,
Cc1cc(Nc2ccc(C(F)(F)F)cc2)n2ccnc2n1 [MMV011229],102.18,84.66,
COc1ccc(CCN2CCC(NCc3cccc(N(C)C)c3)CC2)cc1 [MMV011511],78.49,88.55,
NCC(=O)N1CCn2c(nc(-c3ccccc3)c2Nc2ccc3c(c2)OCO3)C1 [MMV011691],105.27,73.17,
